Reference: ChEMBL document CHEMBL4261514, “Interaction of indomethacin with calf thymus DNA: a multi-spectroscopic, thermodynamic and molecular modelling approach” (Medchemcomm, 2017)
Calls of active or inactive are those of the source. No cut-off for these calls is given here.

Key:
Format in all cases: nucleic-acid assay
Details in all cases: Bos taurus
Calf thymus DNA [1] = assay: Binding affinity to calf thymus DNA assessed as change in viscosity at compound to DNA ratio of 0.2 to 1 by viscometry
Calf thymus DNA [2] = assay: Binding affinity to calf thymus DNA assessed as quenching constant at 50 uM at pH 7.2 by spectrofluorophotometric method
Calf thymus DNA [3] = assay: Binding affinity to calf thymus DNA by isothermal calorimetric titration method
Calf thymus DNA [4] = assay: Binding affinity to calf thymus DNA assessed as hyperchromic shift at 281 nm at 50 uM by UV-visible spectrophotometric method
Calf thymus DNA [5] = assay: Binding affinity to calf thymus DNA assessed as conformational change up to 100 uM by circular dichroism spectral analysis
Calf thymus DNA [6] = assay: Binding affinity to calf thymus DNA assessed as Stern-Volmer quenching constant at 50 uM at pH 7.2 by spectrofluorophotometric method
Calf thymus DNA [7] = assay: Binding affinity to calf thymus DNA assessed as melting temperature at 50 uM by UV-visible spectroscopic method (reference value: 66.3 +/- 1 degC)
Calf thymus DNA [8] = assay: Binding affinity to calf thymus DNA at 50 uM in presence of NaCl by fluorescence assay
Calf thymus DNA [9] = assay: Binding affinity to calf thymus DNA by UV-visible spectrophotometric method
Calf thymus DNA [10] = assay: Inhibition of ethidium bromide binding to calf thymus DNA up to 80 uM by fluorescence assay
Calf thymus DNA [11] = assay: Binding affinity to calf thymus DNA assessed as iodide quenching by measuring reduction in Stern-Volmer quenching constant at 50 uM by fluorescence assay relative to control; parameters: scale not given: the % may be the effect or the level left
Calf thymus DNA [12] = assay: Inhibition of acridine orange binding to calf thymus DNA up to 80 uM by fluorescence assay
Calf thymus DNA [13] = assay: Inhibition of Hoechst 33258 binding to calf thymus DNA up to 70 uM by fluorescence assay

Structure (SMILES): COc1ccc2c(c1)c(CC(=O)O)c(C)n2C(=O)c1ccc(Cl)cc1
- Activity (Calf thymus DNA [1]): inactive
- Kq (Calf thymus DNA [2]): 1.1 ×10¹¹ L/mol/s
- K (Calf thymus DNA [3]): 5.5 ×10³ /mol
- Activity (Calf thymus DNA [4]): Active
- Activity (Calf thymus DNA [5]): inactive
- KSV (Calf thymus DNA [6]): 1.1 ×10³ L/mol
- Tm (Calf thymus DNA [7]): 68.2 °C
- Activity (Calf thymus DNA [8]): inactive
- K (Calf thymus DNA [9]): 9.6 ×10³ L/mol
- inhibition (Calf thymus DNA [10]): inactive
- Activity (Calf thymus DNA [11]): 19%
- inhibition (Calf thymus DNA [12]): inactive
- inhibition (Calf thymus DNA [13]): Active
